Where two headings read alike, the source gives them in different places. Numbered stars: 1 amine (or outer) side, 2 acyl side, 3 side chain; on linkers, the order of the positions; unused ones are H or OH. Square brackets hold non-standard residues; d marks the D form. Side chains are listed from the residue outwards. Peptide text beside a SMILES is read from it. * marks the point of attachment. C18 diacid = O=C(O)CCCCCCCCCCCCCCCCC(=O)*; γGlu = O=C(O)[C@H](CCC(=O)[*:2])N[*:1]; αMeF = C[C@](N)(Cc1ccccc1)C(=O)O; αMeK = C[C@](N)(CCCCN)C(=O)O; Lauroyl = CCCCCCCCCCCC(=O)*; αMeS = C[C@](N)(CO)C(=O)O; AEEA = NCCOCCOCC(=O)O; Aib = CC(C)(N)C(=O)O
Target: T1, human GLP-1 receptor (GLP-1R) (Homo sapiens, UniProt P43220)
T1 construct: expressed in transfected cells; host or cells: HEK293 cells or CHO cells
T1 sequence (P43220 24-463): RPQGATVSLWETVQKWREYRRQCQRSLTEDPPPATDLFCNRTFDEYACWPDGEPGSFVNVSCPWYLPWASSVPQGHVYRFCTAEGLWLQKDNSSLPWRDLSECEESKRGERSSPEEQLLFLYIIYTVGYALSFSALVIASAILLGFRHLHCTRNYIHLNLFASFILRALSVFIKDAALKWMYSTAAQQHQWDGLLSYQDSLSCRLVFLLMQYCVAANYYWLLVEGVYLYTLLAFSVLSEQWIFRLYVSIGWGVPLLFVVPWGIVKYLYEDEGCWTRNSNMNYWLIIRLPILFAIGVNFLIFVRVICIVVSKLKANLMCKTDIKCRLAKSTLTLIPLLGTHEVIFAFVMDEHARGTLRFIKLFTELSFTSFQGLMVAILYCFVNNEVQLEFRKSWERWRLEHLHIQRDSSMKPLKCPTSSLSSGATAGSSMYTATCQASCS
Assay: cAMP assay, human GLP-1R cells
Assay type: cell-based
How it was run: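 Peptide-stimulated cAMP measured by two-step HTRF after a 30 min room-temperature incubation with receptor-expressing cells (hGLP-1R, hGIPR at 1×10^5 cells/ml; hGCGR at 2×10^5 cells/ml). Duplicate dilutions; EC50 from 4-parameter logistic fit of % Delta F.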

[1] = Table 11, tris-lipidated peptides, mean of n1 and n2, read-out: Primary assay EC50 Mean pM GLP-1R
[2] = cAMP activity, mean of n1 and n2, read-out: Mean pM GLP-1R
[3] = cAMP activity, second determination (n2), read-out: Primary assay EC50 GLP-1R n2

EC50 [1] [pM]	EC50 [2] [pM]	Compound	also measured
57.5		CCCCCCCCCCCC(=O)N[C@@H](CCC(=O)NCCOCCOCC(=O)NCCOCCOCC(=O)NCCCC[C@H](NC(=O)CNC(=O)[C@H](CCC(=O)O)NC(=O)[C@H](CC(C)C)NC(=O)[C@H](CCCCNC(=O)COCCOCCNC(=O)COCCOCCNC(=O)CC[C@H](NC(=O)CCCCCCCCCCC)C(=O)O)NC(=O)[C@H](CO)NC(=O)[C@](C)(CO)NC(=O)[C@@H](NC(=O)[C@H](CC(=O)O)NC(=O)[C@H](CO)NC(=O)[C@@H](NC(=O)[C@](C)(Cc1ccccc1)NC(=O)[C@H](CO)NC(=O)CNC(=O)[C@H](CCC(=O)O)NC(=O)C(C)(C)NC(=O)[C@@H](N)Cc1c[nH]cn1)[C@@H](C)O)C(C)C)C(=O)N[C@@H](C)C(=O)N[C@@H](C)C(=O)N[C@@](C)(CCCCN)C(=O)N[C@@H](CCC(=O)O)C(=O)N[C@@H](Cc1ccccc1)C(=O)N[C@H](C(=O)N[C@@H](C)C(=O)N[C@@H](Cc1ccccc1)C(=O)N[C@@H](CCCCNC(=O)COCCOCCNC(=O)COCCOCCNC(=O)CC[C@H](NC(=O)CCCCCCCCCCC)C(=O)O)C(=O)N[C@H](C(=O)N[C@@H](CCC(=O)O)C(=O)NCC(=O)NCC(N)=O)C(C)C)[C@@H](C)CC)C(=O)O [compound 480] (H-H[Aib]EGS[αMeF]TSDV[αMeS]SK([AEEA-AEEA-γGlu-Lauroyl])LEGK([AEEA-AEEA-γGlu-Lauroyl])AA[αMeK]EFIAFK([AEEA-AEEA-γGlu-Lauroyl])VEGG-NH2; N-terminus assumed)	
143		CCCCCCCCCCCC(=O)N[C@@H](CCC(=O)NCCOCCOCC(=O)NCCOCCOCC(=O)NCCCC[C@H](NC(=O)[C@H](CCC(=O)O)NC(=O)CNC(=O)[C@H](CCC(=O)O)NC(=O)[C@H](CC(C)C)NC(=O)[C@H](CCCCNC(=O)COCCOCCNC(=O)COCCOCCNC(=O)CC[C@H](NC(=O)CCCCCCCCCCC)C(=O)O)NC(=O)[C@H](CO)NC(=O)[C@](C)(CO)NC(=O)[C@@H](NC(=O)[C@H](CC(=O)O)NC(=O)[C@H](CO)NC(=O)[C@@H](NC(=O)[C@](C)(Cc1ccccc1)NC(=O)[C@H](CO)NC(=O)CNC(=O)[C@H](CCC(=O)O)NC(=O)C(C)(C)NC(=O)[C@@H](N)Cc1c[nH]cn1)[C@@H](C)O)C(C)C)C(=O)N[C@@H](C)C(=O)N[C@@](C)(CCCCN)C(=O)N[C@@H](CCC(=O)O)C(=O)N[C@@H](Cc1ccccc1)C(=O)N[C@H](C(=O)N[C@@H](C)C(=O)N[C@@H](Cc1ccccc1)C(=O)N[C@@H](CCCCNC(=O)COCCOCCNC(=O)COCCOCCNC(=O)CC[C@H](NC(=O)CCCCCCCCCCC)C(=O)O)C(=O)N[C@H](C(=O)N[C@@H](CCC(=O)O)C(=O)NCC(=O)NCC(N)=O)C(C)C)[C@@H](C)CC)C(=O)O [compound 481] (H-H[Aib]EGS[αMeF]TSDV[αMeS]SK([AEEA-AEEA-γGlu-Lauroyl])LEGEK([AEEA-AEEA-γGlu-Lauroyl])A[αMeK]EFIAFK([AEEA-AEEA-γGlu-Lauroyl])VEGG-NH2)	
290		CCCCCCCCCCCC(=O)N[C@@H](CCC(=O)NCCOCCOCC(=O)NCCOCCOCC(=O)NCCCC[C@H](NC(=O)[C@H](CC(=O)O)NC(=O)[C@H](CO)NC(=O)[C@@H](NC(=O)[C@](C)(Cc1ccccc1)NC(=O)[C@H](CO)NC(=O)CNC(=O)[C@H](CCC(=O)O)NC(=O)C(C)(C)NC(=O)[C@@H](N)Cc1c[nH]cn1)[C@@H](C)O)C(=O)N[C@@H](CO)C(=O)N[C@@H](CO)C(=O)N[C@@H](Cc1ccc(O)cc1)C(=O)N[C@@H](CC(C)C)C(=O)N[C@@H](CCC(=O)O)C(=O)NCC(=O)N[C@@H](CCC(=O)O)C(=O)N[C@@H](C)C(=O)N[C@@H](C)C(=O)N[C@@](C)(CCCCN)C(=O)N[C@@H](CCCCNC(=O)COCCOCCNC(=O)COCCOCCNC(=O)CC[C@H](NC(=O)CCCCCCCCCCC)C(=O)O)C(=O)N[C@@H](Cc1ccccc1)C(=O)N[C@H](C(=O)N[C@@H](C)C(=O)N[C@@H](Cc1ccccc1)C(=O)N[C@@H](CCCCNC(=O)COCCOCCNC(=O)COCCOCCNC(=O)CC[C@H](NC(=O)CCCCCCCCCCC)C(=O)O)C(=O)N[C@H](C(=O)N[C@@H](CCC(=O)O)C(=O)NCC(=O)NCC(N)=O)C(C)C)[C@@H](C)CC)C(=O)O [compound 474] (H-H[Aib]EGS[αMeF]TSDK([AEEA-AEEA-γGlu-Lauroyl])SSYLEGEAA[αMeK]K([AEEA-AEEA-γGlu-Lauroyl])FIAFK([AEEA-AEEA-γGlu-Lauroyl])VEGG-NH2)	
	1200	CC[C@H](C)[C@H](NC(=O)[C@](C)(Cc1ccccc1)NC(=O)[C@H](CCC(=O)O)NC(=O)[C@](C)(CCCCN)NC(=O)[C@H](C)NC(=O)[C@H](C)NC(=O)[C@H](CCC(=O)O)NC(=O)CNC(=O)[C@H](CCC(=O)O)NC(=O)[C@H](CC(C)C)NC(=O)[C@](C)(Cc1ccccc1)NC(=O)[C@H](CO)NC(=O)[C@H](CO)NC(=O)[C@@H](NC(=O)[C@H](CCC(=O)O)NC(=O)[C@H](CO)NC(=O)[C@H](CO)NC(=O)[C@](C)(Cc1ccccc1)NC(=O)[C@H](CO)NC(=O)CNC(=O)[C@H](CCC(=O)O)NC(=O)C(C)(C)NC(=O)[C@@H](N)Cc1c[nH]cn1)C(C)C)C(=O)N[C@@H](C)C(=O)N[C@@](C)(Cc1ccccc1)C(=O)N[C@H](C(=O)N[C@H](C(=O)N[C@@](C)(CCCCN)C(=O)NCC(=O)NCC(N)=O)C(C)C)C(C)C [compound 9] (H-H[Aib]EGS[αMeF]SSEVSS[αMeF]LEGEAA[αMeK]E[αMeF]IA[αMeF]VV[αMeK]GG-NH2; N-terminus assumed)	
	4620	CC[C@H](C)[C@H](NC(=O)[C@](C)(Cc1ccccc1)NC(=O)[C@H](CCC(=O)O)NC(=O)[C@](C)(CCCCN)NC(=O)[C@H](C)NC(=O)[C@H](C)NC(=O)[C@H](CCC(=O)O)NC(=O)CNC(=O)[C@H](CCC(=O)O)NC(=O)[C@H](CC(C)C)NC(=O)[C@](C)(Cc1ccccc1)NC(=O)[C@H](CO)NC(=O)[C@](C)(CO)NC(=O)[C@@H](NC(=O)[C@H](CC(=O)O)NC(=O)[C@H](CCC(=O)O)NC(=O)[C@@H](NC(=O)[C@](C)(Cc1ccccc1)NC(=O)[C@H](CO)NC(=O)CNC(=O)[C@H](CCC(=O)O)NC(=O)C(C)(C)NC(=O)[C@@H](N)Cc1c[nH]cn1)[C@@H](C)O)C(C)C)C(=O)N[C@@H](C)C(=O)N[C@@](C)(Cc1ccccc1)C(=O)N[C@H](C(=O)N[C@H](C(=O)N[C@@](C)(CCCCN)C(=O)NCC(=O)NCC(N)=O)C(C)C)C(C)C [compound 28] (H-H[Aib]EGS[αMeF]TEDV[αMeS]S[αMeF]LEGEAA[αMeK]E[αMeF]IA[αMeF]VV[αMeK]GG-NH2; N-terminus assumed)	EC50 [3]: 4700 pM
	5	CC[C@H](C)[C@H](NC(=O)[C@](C)(Cc1ccccc1)NC(=O)[C@H](CCC(=O)O)NC(=O)[C@](C)(CCCCN)NC(=O)[C@H](C)NC(=O)[C@H](C)NC(=O)[C@H](CCC(=O)O)NC(=O)CNC(=O)[C@H](CCC(=O)O)NC(=O)[C@H](CC(C)C)NC(=O)[C@](C)(Cc1ccccc1)NC(=O)[C@H](CO)NC(=O)[C@](C)(CO)NC(=O)[C@@H](NC(=O)[C@H](CC(=O)O)NC(=O)[C@H](CO)NC(=O)[C@@H](NC(=O)[C@](C)(Cc1ccccc1)NC(=O)[C@H](CO)NC(=O)CNC(=O)[C@H](CCC(=O)O)NC(=O)C(C)(C)NC(=O)[C@@H](N)Cc1c[nH]cn1)[C@@H](C)O)C(C)C)C(=O)N[C@@H](C)C(=O)N[C@@H](CCCCNC(=O)COCCOCCNC(=O)COCCOCCNC(=O)CC[C@H](NC(=O)CCCCCCCCCCCCCCCCC(=O)O)C(=O)O)C(=O)N[C@H](C(=O)N[C@H](C(=O)N[C@@](C)(CCCCN)C(=O)NCC(=O)NCC(N)=O)C(C)C)C(C)C [compound 104]	
170		CCCCCCCCCCCC(=O)N[C@@H](CCC(=O)NCCOCCOCC(=O)NCCOCCOCC(=O)NCCCC[C@H](NC(=O)CNC(=O)[C@H](CCC(=O)O)NC(=O)[C@H](CC(C)C)NC(=O)[C@H](Cc1ccc(O)cc1)NC(=O)[C@H](CO)NC(=O)[C@H](CO)NC(=O)[C@H](CCCCNC(=O)COCCOCCNC(=O)COCCOCCNC(=O)CC[C@H](NC(=O)CCCCCCCCCCC)C(=O)O)NC(=O)[C@H](CC(=O)O)NC(=O)[C@H](CO)NC(=O)[C@@H](NC(=O)[C@](C)(Cc1ccccc1)NC(=O)[C@H](CO)NC(=O)CNC(=O)[C@H](CCC(=O)O)NC(=O)C(C)(C)NC(=O)[C@@H](N)Cc1c[nH]cn1)[C@@H](C)O)C(=O)N[C@@H](C)C(=O)N[C@@H](C)C(=O)N[C@@](C)(CCCCN)C(=O)N[C@@H](CCC(=O)O)C(=O)N[C@@H](Cc1ccccc1)C(=O)N[C@H](C(=O)N[C@@H](C)C(=O)N[C@@H](CCCCNC(=O)COCCOCCNC(=O)COCCOCCNC(=O)CC[C@H](NC(=O)CCCCCCCCCCC)C(=O)O)C(=O)N[C@H](C(=O)N[C@H](C(=O)N[C@@H](CCC(=O)O)C(=O)NCC(=O)NCC(N)=O)C(C)C)C(C)C)[C@@H](C)CC)C(=O)O [compound 456] (H-H[Aib]EGS[αMeF]TSDK([AEEA-AEEA-γGlu-Lauroyl])SSYLEGK([AEEA-AEEA-γGlu-Lauroyl])AA[αMeK]EFIAK([AEEA-AEEA-γGlu-Lauroyl])VVEGG-NH2; N-terminus assumed)	EC50 (Table 11, tris-lipidated peptides, replicate n1, read-out: Primary assay EC50 GLP-1R n1): 116 pM; EC50 (Table 11, tris-lipidated peptides, replicate n2, read-out: Primary assay EC50 GLP-1R n2): 224 pM
	18	CC[C@H](C)[C@H](NC(=O)[C@](C)(Cc1ccccc1)NC(=O)[C@H](CCC(=O)O)NC(=O)[C@](C)(CCCCN)NC(=O)[C@H](C)NC(=O)[C@H](C)NC(=O)[C@H](CCC(=O)O)NC(=O)[C@H](CCCCNC(=O)COCCOCCNC(=O)COCCOCCNC(=O)CC[C@H](NC(=O)CCCCCCCCCCCCCCCCC(=O)O)C(=O)O)NC(=O)[C@H](CCC(=O)O)NC(=O)[C@H](CC(C)C)NC(=O)[C@](C)(Cc1ccccc1)NC(=O)[C@H](CO)NC(=O)[C@](C)(CO)NC(=O)[C@@H](NC(=O)[C@H](CC(=O)O)NC(=O)[C@H](CO)NC(=O)[C@@H](NC(=O)[C@](C)(Cc1ccccc1)NC(=O)[C@H](CO)NC(=O)CNC(=O)[C@H](CCC(=O)O)NC(=O)C(C)(C)NC(=O)[C@@H](N)Cc1c[nH]cn1)[C@@H](C)O)C(C)C)C(=O)N[C@@H](C)C(=O)N[C@@](C)(Cc1ccccc1)C(=O)N[C@H](C(=O)N[C@H](C(=O)N[C@@](C)(CCCCN)C(=O)NCC(=O)NCC(N)=O)C(C)C)C(C)C [compound 113] (H-H[Aib]EGS[αMeF]TSDV[αMeS]S[αMeF]LEK([AEEA-AEEA-γGlu-C18 diacid])EAA[αMeK]E[αMeF]IA[αMeF]VV[αMeK]GG-NH2; N-terminus assumed)	EC50 [3]: 17.4 pM
